Data on three molecules can be found in article PMC4774911, “Biochemical Screening of Five Protein Kinases from Plasmodium falciparum against 14,000 Cell-Active Compounds” (PLoS ONE, 2016).

Structures are written as SMILES. Values joined by “and” are separate entries in the source; they are usually repeats but may differ in a detail not shown here. Equal values may be shown once. A value given as a limit tells only on which side of the number the result lay.

Some targets named below: STK38 (Homo sapiens, UniProt Q15208); TYK2 (Homo sapiens, UniProt P29597); KIAA0999 (Homo sapiens, UniProt Q9Y2K2); SRC (Homo sapiens, UniProt P12931); PTK2B (Homo sapiens, UniProt Q14289).
Common to all, as to assay: biochemical
The next test deals with T1, ADCK1 (Homo sapiens, UniProt Q86TW2).
T1 sequence (Q86TW2 1-530): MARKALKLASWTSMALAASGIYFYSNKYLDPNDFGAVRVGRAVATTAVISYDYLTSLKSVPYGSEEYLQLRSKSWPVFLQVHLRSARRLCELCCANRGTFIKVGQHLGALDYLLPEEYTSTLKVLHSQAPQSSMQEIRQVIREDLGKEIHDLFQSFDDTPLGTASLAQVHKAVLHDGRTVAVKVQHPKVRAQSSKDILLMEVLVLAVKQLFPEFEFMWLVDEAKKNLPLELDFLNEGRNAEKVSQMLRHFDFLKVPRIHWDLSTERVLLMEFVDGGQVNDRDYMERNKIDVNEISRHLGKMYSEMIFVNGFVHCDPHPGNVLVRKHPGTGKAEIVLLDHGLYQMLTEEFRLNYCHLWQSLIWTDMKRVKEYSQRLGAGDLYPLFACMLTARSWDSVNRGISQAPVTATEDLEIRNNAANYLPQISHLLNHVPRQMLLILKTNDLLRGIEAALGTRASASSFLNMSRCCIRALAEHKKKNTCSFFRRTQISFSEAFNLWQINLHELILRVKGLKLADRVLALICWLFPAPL

Another test addresses T2, NEK2 (Homo sapiens, UniProt P51955).
T2 sequence (P51955 1-445): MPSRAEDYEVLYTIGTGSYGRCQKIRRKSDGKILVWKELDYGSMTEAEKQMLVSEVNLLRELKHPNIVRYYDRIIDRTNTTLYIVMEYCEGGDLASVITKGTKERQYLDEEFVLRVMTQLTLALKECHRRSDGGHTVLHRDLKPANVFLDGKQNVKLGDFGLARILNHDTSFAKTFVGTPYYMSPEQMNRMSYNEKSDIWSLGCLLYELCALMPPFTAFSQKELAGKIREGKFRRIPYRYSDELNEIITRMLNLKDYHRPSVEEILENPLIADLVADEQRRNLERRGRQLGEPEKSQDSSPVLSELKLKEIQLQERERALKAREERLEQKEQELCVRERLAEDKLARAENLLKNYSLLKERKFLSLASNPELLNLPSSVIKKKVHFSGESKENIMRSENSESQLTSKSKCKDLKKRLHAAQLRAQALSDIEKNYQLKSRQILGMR

For the next test, the target named is T3, STK17A (Homo sapiens, UniProt Q9UEE5).
T3 sequence (Q9UEE5 1-414): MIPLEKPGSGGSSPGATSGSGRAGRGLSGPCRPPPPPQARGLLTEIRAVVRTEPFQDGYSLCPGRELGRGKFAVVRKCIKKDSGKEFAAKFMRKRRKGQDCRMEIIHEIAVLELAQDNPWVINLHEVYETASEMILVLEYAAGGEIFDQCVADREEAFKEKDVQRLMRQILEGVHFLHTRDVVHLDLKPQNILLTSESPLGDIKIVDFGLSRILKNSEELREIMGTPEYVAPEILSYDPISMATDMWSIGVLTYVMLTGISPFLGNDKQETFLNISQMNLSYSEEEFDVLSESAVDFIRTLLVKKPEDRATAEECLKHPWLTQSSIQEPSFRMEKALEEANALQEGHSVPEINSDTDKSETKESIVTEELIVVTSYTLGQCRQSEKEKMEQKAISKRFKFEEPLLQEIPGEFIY

The target in the next test is T4, PDPK1 (Homo sapiens, UniProt O15530).
T4 sequence (O15530 1-556): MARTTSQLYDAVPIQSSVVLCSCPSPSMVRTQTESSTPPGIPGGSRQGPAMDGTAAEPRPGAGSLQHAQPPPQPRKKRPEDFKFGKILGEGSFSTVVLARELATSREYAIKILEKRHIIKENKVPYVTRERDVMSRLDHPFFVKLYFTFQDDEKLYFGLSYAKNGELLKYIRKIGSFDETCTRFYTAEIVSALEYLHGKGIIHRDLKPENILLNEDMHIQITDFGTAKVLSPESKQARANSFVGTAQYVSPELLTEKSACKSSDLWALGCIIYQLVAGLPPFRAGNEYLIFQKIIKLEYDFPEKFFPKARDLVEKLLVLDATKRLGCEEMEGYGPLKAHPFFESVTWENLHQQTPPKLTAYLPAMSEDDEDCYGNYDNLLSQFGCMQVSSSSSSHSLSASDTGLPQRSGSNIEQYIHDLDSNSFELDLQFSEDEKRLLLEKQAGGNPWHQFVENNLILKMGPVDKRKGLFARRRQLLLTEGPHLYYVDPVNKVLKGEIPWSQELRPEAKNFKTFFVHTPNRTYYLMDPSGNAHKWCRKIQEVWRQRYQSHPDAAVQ

The next test has as its target T5, AURKA (Homo sapiens, UniProt O14965).
T5 sequence (O14965 1-403): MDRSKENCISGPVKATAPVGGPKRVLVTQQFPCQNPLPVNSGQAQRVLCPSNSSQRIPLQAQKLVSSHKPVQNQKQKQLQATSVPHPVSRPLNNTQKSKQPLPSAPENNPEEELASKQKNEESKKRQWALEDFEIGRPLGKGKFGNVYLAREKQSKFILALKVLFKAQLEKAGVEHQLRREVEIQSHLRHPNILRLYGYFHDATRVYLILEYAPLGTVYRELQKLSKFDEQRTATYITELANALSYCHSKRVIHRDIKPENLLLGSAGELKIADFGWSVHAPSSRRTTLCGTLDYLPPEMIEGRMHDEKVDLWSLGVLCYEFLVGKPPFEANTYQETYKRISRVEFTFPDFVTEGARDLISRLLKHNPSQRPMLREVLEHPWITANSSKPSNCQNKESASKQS

Chain of TYK2 (P29597 whole entry): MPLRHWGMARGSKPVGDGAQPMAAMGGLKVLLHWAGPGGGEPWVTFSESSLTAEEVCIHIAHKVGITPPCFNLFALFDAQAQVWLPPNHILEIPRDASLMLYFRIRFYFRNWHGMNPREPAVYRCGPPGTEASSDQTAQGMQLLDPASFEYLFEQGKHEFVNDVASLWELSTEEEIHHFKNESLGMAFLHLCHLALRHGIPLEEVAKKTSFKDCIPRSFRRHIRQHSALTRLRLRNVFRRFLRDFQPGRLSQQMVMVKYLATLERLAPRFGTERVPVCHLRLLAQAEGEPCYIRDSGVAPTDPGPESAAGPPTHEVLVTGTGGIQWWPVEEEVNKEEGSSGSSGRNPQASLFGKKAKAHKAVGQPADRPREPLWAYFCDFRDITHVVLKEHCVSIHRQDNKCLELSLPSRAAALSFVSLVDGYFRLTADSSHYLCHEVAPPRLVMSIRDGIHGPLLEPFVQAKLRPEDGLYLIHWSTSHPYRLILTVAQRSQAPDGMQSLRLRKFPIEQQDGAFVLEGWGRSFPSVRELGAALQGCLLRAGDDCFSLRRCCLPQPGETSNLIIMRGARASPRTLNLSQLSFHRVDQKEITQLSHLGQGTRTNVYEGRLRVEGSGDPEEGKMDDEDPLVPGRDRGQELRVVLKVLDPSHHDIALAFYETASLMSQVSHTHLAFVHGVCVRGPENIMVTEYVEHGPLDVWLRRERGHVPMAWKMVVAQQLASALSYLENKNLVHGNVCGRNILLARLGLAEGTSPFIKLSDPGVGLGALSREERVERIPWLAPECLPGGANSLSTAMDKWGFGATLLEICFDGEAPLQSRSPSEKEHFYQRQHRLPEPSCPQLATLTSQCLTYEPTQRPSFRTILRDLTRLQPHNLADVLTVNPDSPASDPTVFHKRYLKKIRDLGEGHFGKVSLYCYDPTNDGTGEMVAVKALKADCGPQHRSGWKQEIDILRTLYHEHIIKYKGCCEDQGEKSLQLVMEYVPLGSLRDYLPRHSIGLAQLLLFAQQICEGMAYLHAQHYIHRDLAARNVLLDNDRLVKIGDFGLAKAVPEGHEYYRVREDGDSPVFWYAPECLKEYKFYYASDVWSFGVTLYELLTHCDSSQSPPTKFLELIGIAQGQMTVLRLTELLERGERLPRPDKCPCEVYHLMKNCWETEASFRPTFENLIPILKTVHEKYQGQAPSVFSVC
Chain of STK38 (Q15208 whole entry): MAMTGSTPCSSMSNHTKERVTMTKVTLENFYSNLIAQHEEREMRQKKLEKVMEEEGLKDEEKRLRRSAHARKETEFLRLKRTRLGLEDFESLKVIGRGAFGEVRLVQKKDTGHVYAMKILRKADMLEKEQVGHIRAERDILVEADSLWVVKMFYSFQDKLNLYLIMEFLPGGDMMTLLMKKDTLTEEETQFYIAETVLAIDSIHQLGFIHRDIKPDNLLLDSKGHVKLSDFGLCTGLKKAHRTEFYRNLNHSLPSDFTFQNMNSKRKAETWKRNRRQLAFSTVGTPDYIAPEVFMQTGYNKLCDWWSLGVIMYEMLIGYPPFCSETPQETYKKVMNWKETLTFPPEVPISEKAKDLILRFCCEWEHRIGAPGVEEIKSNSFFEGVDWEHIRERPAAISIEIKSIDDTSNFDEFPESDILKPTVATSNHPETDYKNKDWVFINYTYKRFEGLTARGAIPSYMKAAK
Chain of SRC (P12931 whole entry): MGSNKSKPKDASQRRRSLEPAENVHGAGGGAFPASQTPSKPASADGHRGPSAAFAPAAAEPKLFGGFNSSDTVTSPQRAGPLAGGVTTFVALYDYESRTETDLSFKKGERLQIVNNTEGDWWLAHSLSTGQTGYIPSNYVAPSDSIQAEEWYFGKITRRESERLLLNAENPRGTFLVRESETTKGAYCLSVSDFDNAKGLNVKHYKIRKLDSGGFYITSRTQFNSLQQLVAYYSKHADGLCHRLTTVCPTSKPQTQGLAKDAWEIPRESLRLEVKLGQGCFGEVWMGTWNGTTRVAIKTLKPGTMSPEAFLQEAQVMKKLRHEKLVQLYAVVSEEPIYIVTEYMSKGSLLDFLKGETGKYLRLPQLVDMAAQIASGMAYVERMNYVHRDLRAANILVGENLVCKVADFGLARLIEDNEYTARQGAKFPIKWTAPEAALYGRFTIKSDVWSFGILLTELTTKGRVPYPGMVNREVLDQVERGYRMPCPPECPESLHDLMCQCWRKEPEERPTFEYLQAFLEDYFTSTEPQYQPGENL
Chain of KIAA0999 (Q9Y2K2 whole entry): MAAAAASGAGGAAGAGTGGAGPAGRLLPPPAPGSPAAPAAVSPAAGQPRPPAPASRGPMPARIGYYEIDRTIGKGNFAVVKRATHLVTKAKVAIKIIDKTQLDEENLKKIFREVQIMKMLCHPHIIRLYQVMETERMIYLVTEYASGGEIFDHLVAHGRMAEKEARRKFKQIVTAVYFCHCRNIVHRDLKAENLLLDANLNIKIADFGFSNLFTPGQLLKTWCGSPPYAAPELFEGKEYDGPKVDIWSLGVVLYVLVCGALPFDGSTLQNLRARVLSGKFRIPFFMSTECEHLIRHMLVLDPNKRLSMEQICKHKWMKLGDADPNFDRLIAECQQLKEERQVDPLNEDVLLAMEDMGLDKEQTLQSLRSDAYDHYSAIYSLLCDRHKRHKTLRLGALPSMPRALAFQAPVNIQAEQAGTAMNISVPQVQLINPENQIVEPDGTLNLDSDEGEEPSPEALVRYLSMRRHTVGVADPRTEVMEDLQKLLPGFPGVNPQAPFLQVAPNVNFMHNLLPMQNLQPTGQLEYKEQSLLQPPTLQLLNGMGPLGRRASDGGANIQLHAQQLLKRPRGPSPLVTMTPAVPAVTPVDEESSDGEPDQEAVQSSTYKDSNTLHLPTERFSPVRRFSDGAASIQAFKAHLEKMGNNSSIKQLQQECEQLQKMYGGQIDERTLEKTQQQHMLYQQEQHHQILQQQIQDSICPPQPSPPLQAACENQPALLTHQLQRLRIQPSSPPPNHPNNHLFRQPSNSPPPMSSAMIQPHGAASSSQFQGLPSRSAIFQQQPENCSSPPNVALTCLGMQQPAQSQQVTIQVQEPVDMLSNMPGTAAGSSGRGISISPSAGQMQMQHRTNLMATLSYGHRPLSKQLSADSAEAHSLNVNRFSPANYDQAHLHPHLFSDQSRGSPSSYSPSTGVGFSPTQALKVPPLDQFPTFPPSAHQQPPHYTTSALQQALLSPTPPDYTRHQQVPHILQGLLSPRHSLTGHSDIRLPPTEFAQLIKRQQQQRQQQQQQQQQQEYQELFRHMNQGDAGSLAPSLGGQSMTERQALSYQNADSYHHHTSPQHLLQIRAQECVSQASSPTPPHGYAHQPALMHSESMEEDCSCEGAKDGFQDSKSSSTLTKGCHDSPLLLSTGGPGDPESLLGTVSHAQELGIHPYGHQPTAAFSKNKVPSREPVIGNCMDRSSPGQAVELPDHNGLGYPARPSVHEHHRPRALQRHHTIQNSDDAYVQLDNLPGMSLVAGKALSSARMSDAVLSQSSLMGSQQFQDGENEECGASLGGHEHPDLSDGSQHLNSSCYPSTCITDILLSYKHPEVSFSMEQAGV
Chain of PTK2B (Q14289 whole entry): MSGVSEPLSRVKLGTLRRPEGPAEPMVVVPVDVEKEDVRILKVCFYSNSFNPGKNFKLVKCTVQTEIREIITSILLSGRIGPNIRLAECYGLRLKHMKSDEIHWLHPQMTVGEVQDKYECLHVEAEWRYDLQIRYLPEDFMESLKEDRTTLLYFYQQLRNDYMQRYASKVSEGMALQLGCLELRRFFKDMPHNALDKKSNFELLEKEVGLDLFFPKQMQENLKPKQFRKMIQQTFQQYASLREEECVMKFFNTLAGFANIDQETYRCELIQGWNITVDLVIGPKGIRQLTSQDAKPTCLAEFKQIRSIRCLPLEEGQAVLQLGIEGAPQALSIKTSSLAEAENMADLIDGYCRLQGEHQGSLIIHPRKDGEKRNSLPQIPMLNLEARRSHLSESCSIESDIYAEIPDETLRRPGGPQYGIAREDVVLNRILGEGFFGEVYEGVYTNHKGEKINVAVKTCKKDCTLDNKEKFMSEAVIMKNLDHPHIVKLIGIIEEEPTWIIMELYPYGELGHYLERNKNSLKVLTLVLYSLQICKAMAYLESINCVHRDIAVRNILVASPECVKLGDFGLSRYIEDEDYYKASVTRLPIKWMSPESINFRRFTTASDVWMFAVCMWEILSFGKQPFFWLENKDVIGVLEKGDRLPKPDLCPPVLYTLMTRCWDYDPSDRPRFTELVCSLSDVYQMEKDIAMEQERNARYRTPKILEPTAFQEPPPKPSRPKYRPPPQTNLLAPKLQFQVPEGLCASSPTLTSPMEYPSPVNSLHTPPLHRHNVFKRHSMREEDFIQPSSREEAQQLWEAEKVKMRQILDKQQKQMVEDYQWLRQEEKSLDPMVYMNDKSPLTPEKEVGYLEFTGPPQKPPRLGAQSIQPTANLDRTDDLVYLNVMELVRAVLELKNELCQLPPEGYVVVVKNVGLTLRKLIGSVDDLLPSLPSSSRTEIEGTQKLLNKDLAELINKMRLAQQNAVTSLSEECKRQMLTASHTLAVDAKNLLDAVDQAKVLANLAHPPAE

As for `CN1CCN(c2ccc(Nc3ncc(C#N)c(Nc4ccccc4C(N)=O)n3)cc2)CC1.Cl` [TCMDC-134116], the IC50 (as a rule, the concentration needed to halve the response being measured) against STK38 is 350 nM and 290 nM; at ADCK1, 1000 nM; against TYK2, 100 nM and 92 nM; against KIAA0999, 350 nM and 250 nM; on SRC it was 480 nM and 410 nM; against NEK2 it was 570 nM and 250 nM. Besides, the concentration for half-maximal inhibition (IC50) against STK17A was 180 nM; at PDPK1, 890 nM and 740 nM; at PTK2B it was 77 nM and 97 nM; against AURKA, ≤ 32 nM and 52 nM.

With `Cl.NCC1(c2nc(-c3ccc(Cl)c(O)c3)c(-c3ccncc3)[nH]2)CCCCC1` [TCMDC-141154], the IC50 against STK38 is over 20000 nM; against ADCK1 it was over 20000 nM; against TYK2 it was over 20000 nM; on KIAA0999 it was 66 nM and 51 nM; against SRC, 290 nM; on NEK2, over 20000 nM. In addition, the IC50 against STK17A, against PDPK1, on PTK2B and against AURKA was over 20000 nM in each case.

Turning to `CN(C)CC(O)COc1ccc(Nc2ncc([N+](=O)[O-])c(Nc3ccccc3O)n2)cc1.O=C(O)C(F)(F)F` (stereo not drawn) [TCMDC-141399], the IC50 on STK38 is over 20000 nM; against ADCK1, 1800 nM; against TYK2, 1900 nM; against KIAA0999, over 20000 nM; against SRC, over 20000 nM; at NEK2, 6500 nM and 4200 nM. In addition, the IC50 at STK17A is 4200 nM; against PDPK1, over 20000 nM; on PTK2B it was 350 nM and 480 nM; on AURKA it was over 20000 nM.
